ChEMBL document CHEMBL4043190 (Bioorg Med Chem Lett, 2017)

Assays:
[1] = target: T1, Cyclin-dependent kinase 9 (Homo sapiens, UniProt P50750); conditions: 70 nM
Mus musculus [2] = assay: Antiinflammatory activity in IMQ-induced BALB/c mouse model assessed as reduction in serum IL-17F production at 70 mg/kg, po bid for 5 days; type: functional; parameters: scale not given: the % may be the effect or the level left
Mus musculus [3] = assay: Anti-inflammatory activity in IL-23/IL-1beta induced C57BL/6J mouse assessed as inhibition of IL-17F level in serum at 30 mg/kg, po pretreated for 30 mins followed by cytokine addition measured after 3 hrs by ELISA relative to control; type: functional
[4] = Permeability from apical side to basolateral side in MDCK cells; type: ADME, cell-based, Canis lupus familiaris; conditions: dog, read-out: permeability
Mus musculus [5] = assay: Antiinflammatory activity in IMQ-induced BALB/c mouse psoriasis model assessed as reduction in ear thickness at 70 mg/kg, po bid for 5 days meausred on day 6; type: functional; parameters: scale not given: the % may be the effect or the level left
[6] = target: T2, Non-receptor tyrosine-protein kinase TYK2 (Homo sapiens, UniProt P29597); assay: Inhibition of TYK2 (unknown origin) assessed as reduction in IL-23 induced STAT3 phosphorylation by cell based ELISA
T2 sequence (P29597 whole entry): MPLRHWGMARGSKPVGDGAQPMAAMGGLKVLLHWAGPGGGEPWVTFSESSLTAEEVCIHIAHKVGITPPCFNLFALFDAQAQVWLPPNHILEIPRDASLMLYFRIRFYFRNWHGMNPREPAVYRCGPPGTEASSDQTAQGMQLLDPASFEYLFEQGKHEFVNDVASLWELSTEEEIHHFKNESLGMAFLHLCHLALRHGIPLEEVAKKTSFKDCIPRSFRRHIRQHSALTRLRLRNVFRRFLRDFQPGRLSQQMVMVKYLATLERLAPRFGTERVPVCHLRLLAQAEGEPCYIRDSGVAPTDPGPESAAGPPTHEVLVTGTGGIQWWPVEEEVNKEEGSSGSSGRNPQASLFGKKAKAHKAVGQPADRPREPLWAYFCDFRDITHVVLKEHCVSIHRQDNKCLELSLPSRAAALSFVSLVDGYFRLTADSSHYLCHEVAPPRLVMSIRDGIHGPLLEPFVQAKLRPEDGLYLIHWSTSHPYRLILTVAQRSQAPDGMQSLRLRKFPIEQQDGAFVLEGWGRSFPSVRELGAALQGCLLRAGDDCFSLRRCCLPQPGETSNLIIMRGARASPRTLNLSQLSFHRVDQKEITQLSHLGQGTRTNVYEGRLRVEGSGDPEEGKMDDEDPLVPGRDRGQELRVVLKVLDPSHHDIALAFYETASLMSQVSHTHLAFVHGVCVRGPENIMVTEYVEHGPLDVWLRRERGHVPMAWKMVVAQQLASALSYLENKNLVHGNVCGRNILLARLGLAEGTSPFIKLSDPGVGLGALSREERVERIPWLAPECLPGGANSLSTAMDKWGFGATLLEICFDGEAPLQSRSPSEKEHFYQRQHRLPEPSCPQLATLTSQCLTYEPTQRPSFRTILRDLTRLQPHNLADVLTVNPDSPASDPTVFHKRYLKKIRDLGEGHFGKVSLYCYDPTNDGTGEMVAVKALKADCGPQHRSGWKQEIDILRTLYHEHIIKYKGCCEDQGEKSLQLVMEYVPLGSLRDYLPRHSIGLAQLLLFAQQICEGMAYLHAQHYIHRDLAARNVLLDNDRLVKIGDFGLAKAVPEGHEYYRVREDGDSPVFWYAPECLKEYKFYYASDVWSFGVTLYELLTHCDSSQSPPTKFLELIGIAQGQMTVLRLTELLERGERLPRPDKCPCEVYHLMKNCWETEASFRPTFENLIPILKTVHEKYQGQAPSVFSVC

Plasma [7] = assay: Unbound drug concentration in IL-23/IL-1beta induced C57BL/6J mouse plasma at 70 mg/kg, po preincubated for 30 mins followed by cytokine addition measured after 3.5 hrs post dose; type: ADME, organism-based; conditions: in vivo
[8] = target: T1, Cyclin-dependent kinase 9; assay: Inhibition of CDK9 (unknown origin)
[9] = target: Tyrosine-protein kinase JAK1 (Homo sapiens, UniProt P23458); assay: Inhibition of JAK1 (unknown origin)
Tyrosine-protein kinase JAK1, sequence (P23458 whole entry): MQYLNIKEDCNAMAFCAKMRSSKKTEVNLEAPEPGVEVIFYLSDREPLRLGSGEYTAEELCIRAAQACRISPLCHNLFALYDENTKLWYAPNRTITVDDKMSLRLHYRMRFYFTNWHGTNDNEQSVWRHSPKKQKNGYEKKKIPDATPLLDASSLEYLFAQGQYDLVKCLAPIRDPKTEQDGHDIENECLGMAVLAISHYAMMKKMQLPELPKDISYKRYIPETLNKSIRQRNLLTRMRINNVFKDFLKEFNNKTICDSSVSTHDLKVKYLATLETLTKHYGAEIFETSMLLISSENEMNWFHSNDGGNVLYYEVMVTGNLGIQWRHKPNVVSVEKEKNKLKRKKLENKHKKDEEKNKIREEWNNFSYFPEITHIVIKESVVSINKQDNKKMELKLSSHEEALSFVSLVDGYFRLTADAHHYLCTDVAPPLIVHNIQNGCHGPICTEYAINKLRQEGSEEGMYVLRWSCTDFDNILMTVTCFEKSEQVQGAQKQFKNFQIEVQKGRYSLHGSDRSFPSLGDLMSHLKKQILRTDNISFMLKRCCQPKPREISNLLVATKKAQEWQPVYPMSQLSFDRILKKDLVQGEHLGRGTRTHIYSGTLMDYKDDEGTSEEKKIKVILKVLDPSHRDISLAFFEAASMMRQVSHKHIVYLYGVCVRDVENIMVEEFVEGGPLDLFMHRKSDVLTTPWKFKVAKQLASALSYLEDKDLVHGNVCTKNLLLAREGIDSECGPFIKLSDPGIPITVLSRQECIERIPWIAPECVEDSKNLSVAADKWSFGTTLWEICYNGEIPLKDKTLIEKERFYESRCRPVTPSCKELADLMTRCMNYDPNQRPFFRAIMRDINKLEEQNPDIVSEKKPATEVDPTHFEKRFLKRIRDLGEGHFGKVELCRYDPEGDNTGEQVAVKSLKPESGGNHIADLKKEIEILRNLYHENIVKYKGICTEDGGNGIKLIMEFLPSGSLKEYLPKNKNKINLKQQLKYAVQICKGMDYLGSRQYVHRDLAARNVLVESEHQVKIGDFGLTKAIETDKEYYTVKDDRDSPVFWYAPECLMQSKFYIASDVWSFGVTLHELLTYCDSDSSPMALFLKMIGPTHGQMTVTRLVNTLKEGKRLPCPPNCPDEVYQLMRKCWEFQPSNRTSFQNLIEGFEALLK

Mus musculus [10] = assay: Antiinflammatory activity in IMQ-induced BALB/c mouse model assessed as reduction in serum IL-17F production at 100 mg/kg, po bid for 5 days; type: functional; parameters: scale not given: the % may be the effect or the level left
Mus musculus [11] = assay: Anti-inflammatory activity in IL-23/IL-1beta induced C57BL/6J mouse assessed as inhibition of IL-17F level in serum at 70 mg/kg, po pretreated for 30 mins followed by cytokine addition measured after 3 hrs by ELISA relative to control; type: functional
[12] = Efflux ratio of permeability from basolateral to apical over apical to basolateral side in MDCK cells; type: ADME, cell-based, Canis lupus familiaris; conditions: dog
[13] = target: Substance-P receptor (Homo sapiens) (UniProt P25103); assay: Inhibition of NK1 (unknown origin) at 10 uM relative to control
Substance-P receptor (Homo sapiens), sequence (P25103 whole entry): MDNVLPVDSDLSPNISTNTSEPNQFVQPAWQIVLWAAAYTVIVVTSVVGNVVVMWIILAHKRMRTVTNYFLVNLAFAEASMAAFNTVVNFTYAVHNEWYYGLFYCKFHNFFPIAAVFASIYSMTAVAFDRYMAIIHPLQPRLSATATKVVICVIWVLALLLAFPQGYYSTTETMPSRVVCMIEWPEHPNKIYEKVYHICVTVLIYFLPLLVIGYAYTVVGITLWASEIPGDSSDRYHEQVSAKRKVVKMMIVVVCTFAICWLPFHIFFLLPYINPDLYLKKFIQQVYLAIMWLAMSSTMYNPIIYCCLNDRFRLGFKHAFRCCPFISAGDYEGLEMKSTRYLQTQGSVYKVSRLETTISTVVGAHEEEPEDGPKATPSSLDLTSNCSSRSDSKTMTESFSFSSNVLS

[14] = target: T3, Tyrosine-protein kinase JAK3 (Homo sapiens, UniProt P52333); assay: Inhibition of JAK3 (unknown origin)
T3 sequence (P52333 whole entry): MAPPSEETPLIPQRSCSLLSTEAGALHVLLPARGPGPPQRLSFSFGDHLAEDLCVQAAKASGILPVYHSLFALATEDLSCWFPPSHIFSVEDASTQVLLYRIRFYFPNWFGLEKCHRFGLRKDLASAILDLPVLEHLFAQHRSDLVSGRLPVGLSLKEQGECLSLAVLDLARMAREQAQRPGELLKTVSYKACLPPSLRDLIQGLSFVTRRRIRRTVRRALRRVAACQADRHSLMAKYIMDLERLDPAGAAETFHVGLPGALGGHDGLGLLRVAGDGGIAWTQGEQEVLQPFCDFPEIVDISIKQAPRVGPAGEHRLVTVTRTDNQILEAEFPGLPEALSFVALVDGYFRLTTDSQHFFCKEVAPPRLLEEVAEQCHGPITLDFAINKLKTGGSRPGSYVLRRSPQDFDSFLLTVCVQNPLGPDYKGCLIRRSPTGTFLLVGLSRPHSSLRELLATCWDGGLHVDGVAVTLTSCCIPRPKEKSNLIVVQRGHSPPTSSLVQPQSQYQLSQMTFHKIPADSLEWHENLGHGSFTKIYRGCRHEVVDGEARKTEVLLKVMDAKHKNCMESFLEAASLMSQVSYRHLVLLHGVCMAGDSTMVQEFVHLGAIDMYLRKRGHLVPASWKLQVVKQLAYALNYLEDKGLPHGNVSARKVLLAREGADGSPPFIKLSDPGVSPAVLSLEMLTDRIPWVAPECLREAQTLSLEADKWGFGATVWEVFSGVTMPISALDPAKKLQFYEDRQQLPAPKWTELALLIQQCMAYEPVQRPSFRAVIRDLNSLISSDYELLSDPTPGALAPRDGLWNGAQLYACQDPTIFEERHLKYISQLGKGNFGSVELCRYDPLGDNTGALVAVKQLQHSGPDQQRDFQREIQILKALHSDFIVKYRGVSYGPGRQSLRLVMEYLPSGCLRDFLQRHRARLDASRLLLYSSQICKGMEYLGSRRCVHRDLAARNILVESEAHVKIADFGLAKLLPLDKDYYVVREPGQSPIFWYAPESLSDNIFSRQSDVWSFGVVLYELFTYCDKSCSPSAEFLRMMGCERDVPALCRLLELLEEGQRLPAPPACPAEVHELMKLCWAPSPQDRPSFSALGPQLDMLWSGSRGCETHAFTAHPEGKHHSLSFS

Homo sapiens = species: Homo sapiens; assay: Selectivity ratio of EC50 for JAK2 (unknown origin) assessed as EPO-induced STAT5 phosphorylation to EC50 for TYK2 (unknown origin) assessed as IL-23-induced STAT3 phosphorylation
Plasma [15] = assay: Unbound drug concentration in IL-23/IL-1beta induced C57BL/6J mouse plasma at 30 mg/kg, po preincubated for 30 mins followed by cytokine addition measured after 3.5 hrs post dose; type: ADME, organism-based; conditions: in vivo
Mus musculus [16] = assay: Antiinflammatory activity in IMQ-induced BALB/c mouse model assessed as reduction in serum IL-17F production at 30 mg/kg, po bid for 5 days; type: functional; parameters: scale not given: the % may be the effect or the level left
[17] = Clearance in rat; type: ADME; conditions: in vivo
[18] = Ratio of unbound drug concentration in IL-23/IL-1beta induced C57BL/6J mouse plasma at 100 mg/kg, po to EC50 for TYK2 (unknown origin) assessed as inhibition of IL-23 induced STAT3 phosphorylation
Mus musculus [19] = assay: Toxicity in IMQ-induced BALB/c mouse model assessed as reduction in platelet levels at 70 mg/kg, po bid for 5 days; type: organism-based; parameters: scale not given: the % may be the effect or the level left; conditions: in vivo, 120 h
[20] = Ratio of unbound drug concentration in IL-23/IL-1beta induced C57BL/6J mouse plasma at 30 mg/kg, po to EC50 for JAK2 (unknown origin) assessed as inhibition of EPO-mediated STAT5 phosphorylation; type: organism-based; conditions: in vivo
[21] = Protein binding in human plasma; type: ADME, cell-free; conditions: read-out: PPB (converted)
[22] = Clearance in dog; type: ADME, Canis lupus familiaris; conditions: in vivo
[23] = target: T2, Non-receptor tyrosine-protein kinase TYK2; assay: Inhibition of TYK2 (unknown origin) by biochemical assay
[24] = target: Tyrosine-protein kinase JAK2 (Homo sapiens, UniProt O60674); assay: Inhibition of JAK2 (unknown origin) by biochemical assay
Tyrosine-protein kinase JAK2, sequence (O60674 whole entry): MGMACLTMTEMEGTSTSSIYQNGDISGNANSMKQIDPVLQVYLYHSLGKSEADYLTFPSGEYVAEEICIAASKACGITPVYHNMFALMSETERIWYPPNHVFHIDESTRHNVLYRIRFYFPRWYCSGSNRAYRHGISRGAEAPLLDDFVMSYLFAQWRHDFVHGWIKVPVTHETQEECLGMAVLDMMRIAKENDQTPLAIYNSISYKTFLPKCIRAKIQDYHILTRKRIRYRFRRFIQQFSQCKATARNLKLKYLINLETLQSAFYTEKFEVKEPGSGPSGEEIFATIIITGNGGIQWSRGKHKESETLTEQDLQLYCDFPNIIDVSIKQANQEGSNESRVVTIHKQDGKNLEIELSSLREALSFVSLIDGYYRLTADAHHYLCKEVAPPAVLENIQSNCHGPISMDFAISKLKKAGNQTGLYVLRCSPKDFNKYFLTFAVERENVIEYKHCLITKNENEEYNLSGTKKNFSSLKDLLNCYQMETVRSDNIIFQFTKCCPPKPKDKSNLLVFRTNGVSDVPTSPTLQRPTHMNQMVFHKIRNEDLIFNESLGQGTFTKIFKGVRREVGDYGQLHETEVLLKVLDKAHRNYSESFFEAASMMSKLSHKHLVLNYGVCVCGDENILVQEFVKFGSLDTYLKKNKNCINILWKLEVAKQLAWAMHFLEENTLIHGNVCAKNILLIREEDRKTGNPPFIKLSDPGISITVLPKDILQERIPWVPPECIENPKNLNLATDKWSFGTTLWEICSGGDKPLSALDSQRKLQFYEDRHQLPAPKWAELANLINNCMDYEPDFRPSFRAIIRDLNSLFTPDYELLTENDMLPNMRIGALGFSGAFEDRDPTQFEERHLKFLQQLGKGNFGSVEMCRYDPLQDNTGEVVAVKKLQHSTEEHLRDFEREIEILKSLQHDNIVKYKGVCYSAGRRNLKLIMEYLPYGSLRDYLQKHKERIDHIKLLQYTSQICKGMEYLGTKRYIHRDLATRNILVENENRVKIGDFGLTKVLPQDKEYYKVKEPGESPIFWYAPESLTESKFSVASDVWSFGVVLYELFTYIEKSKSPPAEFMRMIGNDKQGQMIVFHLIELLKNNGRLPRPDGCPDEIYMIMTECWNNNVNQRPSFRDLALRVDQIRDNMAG

[25] = Ratio of unbound drug concentration in IL-23/IL-1beta induced C57BL/6J mouse plasma at 70 mg/kg, po to EC50 for TYK2 (unknown origin) assessed as inhibition of IL-23 induced STAT3 phosphorylation
Mus musculus [26] = assay: Antiinflammatory activity in IMQ-induced BALB/c mouse psoriasis model assessed as reduction in ear thickness at 30 mg/kg, po bid for 5 days meausred on day 6; type: functional; parameters: scale not given: the % may be the effect or the level left

T1 sequence (P50750 whole entry): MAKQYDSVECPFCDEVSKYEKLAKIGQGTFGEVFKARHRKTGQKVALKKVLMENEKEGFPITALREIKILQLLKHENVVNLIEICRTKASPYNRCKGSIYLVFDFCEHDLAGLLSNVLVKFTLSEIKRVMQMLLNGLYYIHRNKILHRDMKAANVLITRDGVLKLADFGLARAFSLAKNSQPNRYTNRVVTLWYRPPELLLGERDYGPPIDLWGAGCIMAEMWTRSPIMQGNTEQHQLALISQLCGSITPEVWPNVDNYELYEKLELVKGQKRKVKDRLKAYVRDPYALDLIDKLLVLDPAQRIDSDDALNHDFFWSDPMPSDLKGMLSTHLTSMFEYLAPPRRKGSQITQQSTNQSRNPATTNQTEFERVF

SMILES: Cc1cc(Nc2nccc3nc(-c4c(Cl)cc(C#N)cc4Cl)[nH]c23)ncn1
- inhibition [1]: > 50%
- Activity (Mus musculus [2]): 100%
- inhibition in vivo at 30 mg/kg (Mus musculus [3]): 30%
- Papp A→B [4]: 12.7 ×10⁻⁶ cm/s
- Activity (Mus musculus [5]): 78%
- EC50 [6]: 0.066 µM
- Cp(f) (Plasma [7]): 1500 nM
- Ki [8]: 0.108 µM
- Ki [9]: 0.024 µM
- Activity (Mus musculus [10]): 99%
- inhibition in vivo at 70 mg/kg (Mus musculus [11]): 72%
- efflux ratio [12]: 1.1
- inhibition [13]: 67%
- Ki [14]: 0.058 µM
- Ratio EC50 (Homo sapiens): 21
- Cp(f) (Plasma [15]): 860 nM
- Activity (Mus musculus [16]): 74%
- clearance [17]: 5.1 mL/min/kg
- Ratio [18]: 39
- Activity (Mus musculus [19]): 55%
- Ratio [20]: 0.61
- fraction unbound [21]: 0.028
- clearance [22]: 3.6 mL/min/kg
- Ki [23]: 0.0007 µM
- Ki [24]: 0.022 µM
- Ratio [25]: 23
- Activity (Mus musculus [26]): 20%
